Counter-ions that a name gives are not always drawn. Like-named read-outs stand apart in the source and are kept apart here.

This experiment concerns Acinetobacter baumannii ATCC17978. Briefly: Antimicrobial susceptibility testing: 90% growth inhibitory concentration (IC90) determination, Iso-Sensitest broth. It is filed as cell-based. In outline: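 A. baumannii ATCC17978 grown in Iso-Sensitest broth across 10 compound concentrations at 35±2 °C.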
The mark [1] stands for this setting: 90% growth inhibitory concentration, Acinetobacter baumannii ATCC17978, Iso-Sensitest broth, OD 600 nm over 16 h, read-out: ATCC17978 IC90.

For the compound `Cc1cc(Nc2nccn3c(-c4ccc(OCc5ccncc5)c(F)c4F)cnc23)ccc1C(=O)N1CCC(CN)CC1` [Example 127, [4-(aminomethyl)-1-piperidyl]-[4-[[3-[2,3-difluoro-4-(4-pyridylmethoxy)phenyl]imidazo[1,2-a]pyrazin-8-yl]amino]-2-methyl-phenyl]methanone formate], under setting [1], the IC90 was determined as 910 nM.
Take `Cc1cc(Nc2nccn3c(-c4ccc(OC(F)F)cc4)cnc23)ccc1C(=O)N1CCN(C(=O)N2CCN(C)CC2)CC1` [Example 128, [4-[[3-[4-(difluoromethoxy)phenyl]imidazo[1,2-a]pyrazin-8-yl]amino]-2-methyl-phenyl]-[4-(4-methylpiperazine-1-carbonyl)piperazin-1-yl]methanone formate]: the IC90 (Acinetobacter baumannii, ATCC17978, 16 h, read-out: ATCC17978 IC90, 90% growth inhibitory concentration, Acinetobacter baumannii ATCC17978, Iso-Sensitest broth, OD 600 nm over 16 h) is 190 nM.
Regarding `Cc1cc(Nc2nccn3c(-c4ccc(OC(F)F)cc4)cnc23)ccc1C(=O)N1CCNCC1` [Example 129, [4-[[3-[4-(difluoromethoxy)phenyl]imidazo[1,2-a]pyrazin-8-yl]amino]-2-methyl-phenyl]-piperazin-1-yl-methanone hydrochloride], the IC90 under setting [1] came out at 910 nM.
For `COc1ccc(-c2cnc3c(Nc4ccc(C(=O)N5CCNCC5)c(C)c4)nccn23)cc1F` [Example 130, [4-[[3-(3-fluoro-4-methoxy-phenyl)imidazo[1,2-a]pyrazin-8-yl]amino]-2-methyl-phenyl]-piperazin-1-yl-methanone hydrochloride], under setting [1], the IC90 came out at 430 nM.
Turning to `Cc1cc(Nc2nccn3c(-c4ccc(OC(F)F)cc4)cnc23)ccc1C(=O)N1CCN(C(=O)N2CCOC(CN(C)C)C2)CC1` (stereo not drawn) [Example 132, [4-[[3-[4-(difluoromethoxy)phenyl]imidazo[1,2-a]pyrazin-8-yl]amino]-2-methyl-phenyl]-[4-[2-[(dimethylamino)methyl]morpholine-4-carbonyl]piperazin-1-yl]methanone], under setting [1], the IC90 turned out to be 300 nM.
Take `Cc1cc(Nc2nccn3c(-c4ccc(OC(F)F)cc4)cnc23)ccc1C(=O)N1CCN(C(=O)N2CCNC(CO)C2)CC1` (stereo not drawn) [Example 133, [4-[[3-[4-(difluoromethoxy)phenyl]imidazo[1,2-a]pyrazin-8-yl]amino]-2-methyl-phenyl]-[4-[3-(hydroxymethyl)piperazine-1-carbonyl]piperazin-1-yl]methanone hydrochloride]: under setting [1], the IC90 amounted to 230 nM.
For the compound `Cc1cc(Nc2nccn3c(-c4ccc(OC(F)F)cc4)cnc23)ccc1C(=O)N1CCN(C(=O)N2CCOC(CN)C2)CC1` (stereo not drawn) [Example 134, [4-[2-(aminomethyl)morpholine-4-carbonyl]piperazin-1-yl]-[4-[[3-[4-(difluoromethoxy)phenyl]imidazo[1,2-a]pyrazin-8-yl]amino]-2-methyl-phenyl]methanone hydrochloride], under setting [1], the IC90 is 260 nM.
As for `Cc1cc(Nc2nccn3c(-c4ccc(OC(F)F)cc4)cnc23)ccc1C(=O)N1CCN(C(=O)N(C)C)CC1` [Example 135, 4-[4-[[3-[4-(difluoromethoxy)phenyl]imidazo[1,2-a]pyrazin-8-yl]amino]-2-methyl-benzoyl]-N,N-dimethyl-piperazine-1-carboxamide], the IC90 under setting [1] is 280 nM.
Take `CNCC1CN(C(=O)N2CCN(C(=O)c3ccc(Nc4nccn5c(-c6ccc(OC(F)F)cc6)cnc45)cc3C)CC2)CCO1` (stereo not drawn) [Example 136, [4-[[3-[4-(difluoromethoxy)phenyl]imidazo[1,2-a]pyrazin-8-yl]amino]-2-methyl-phenyl]-[4-[2-(methylaminomethyl)morpholine-4-carbonyl]piperazin-1-yl]methanone hydrochloride]: the IC90 under setting [1] came to 270 nM.
On the same count and under the same terms, to `Cc1cc(Nc2nccn3c(-c4ccc(OCC#N)c(F)c4F)cnc23)ccc1C(=O)N1CCN(C(=O)N2CCNCC2)CC1` [Example 137, 2-[2,3-difluoro-4-[8-[3-methyl-4-[4-(piperazine-1-carbonyl)piperazine-1-carbonyl]anilino]imidazo[1,2-a]pyrazin-3-yl]phenoxy]acetonitrile formate] belongs 130 nM; to `Cc1cc(Nc2nccn3c(-c4ccc(OC(F)F)cc4)cnc23)ccc1C(=O)N1CCN(C(=O)N[C@H]2CCNC2)CC1` [Example 138, 4-[4-[[3-[4-(difluoromethoxy)phenyl]imidazo[1,2-a]pyrazin-8-yl]amino]-2-methyl-benzoyl]-N-[(3S)-pyrrolidin-3-yl]piperazine-1-carboxamide hydrochloride], 110 nM.
For the compound `Cc1cc(Nc2nccn3c(-c4ccc(OCC#N)c(F)c4F)cnc23)ccc1C(=O)N1CCN(C(=O)NCCN)CC1` [Example 139, N-(2-aminoethyl)-4-[4-[[3-[4-(cyanomethoxy)-2,3-difluoro-phenyl]imidazo[1,2-a]pyrazin-8-yl]amino]-2-methyl-benzoyl]piperazine-1-carboxamide formate], the IC90 under setting [1] turned out to be 130 nM.
Regarding `COc1ccc(-c2cnc3c(Nc4ccc(C(=O)N5CCN(C(=O)N6CCO[C@H](CN)C6)CC5)c(C)c4)nccn23)c(F)c1F` [Example 140, [4-[(2R)-2-(aminomethyl)morpholine-4-carbonyl]piperazin-1-yl]-[4-[[3-(2,3-difluoro-4-methoxy-phenyl)imidazo[1,2-a]pyrazin-8-yl]amino]-2-methyl-phenyl]methanone formate], under setting [1], the IC90 was found to be 190 nM.
Regarding `Cc1cc(Nc2nccn3c(-c4ccc(OC(F)F)cc4)cnc23)ccc1C(=O)N1CCN(C(=O)N[C@@H]2CCNC2)CC1` [Example 142, 4-[4-[[3-[4-(difluoromethoxy)phenyl]imidazo[1,2-a]pyrazin-8-yl]amino]-2-methyl-benzoyl]-N-[(3R)-pyrrolidin-3-yl]piperazine-1-carboxamide hydrochloride], the IC90 under setting [1] is 150 nM.
Take `Cc1cc(Nc2nccn3c(-c4ccc(OC(F)F)cc4)cnc23)ccc1C(=O)N1CCN(C(=O)NC2CCNCC2)CC1` [Example 143, 4-[4-[[3-[4-(difluoromethoxy)phenyl]imidazo[1,2-a]pyrazin-8-yl]amino]-2-methyl-benzoyl]-N-(4-piperidyl)piperazine-1-carboxamide hydrochloride]: under setting [1], the IC90 was determined as 160 nM.
On to `Cc1cc(Nc2nccn3c(-c4ccc(OC(F)F)cc4)cnc23)ccc1C(=O)N1CCN(C(=O)NCC2CNC2)CC1` [Example 144, N-(azetidin-3-ylmethyl)-4-[4-[[3-[4-(difluoromethoxy)phenyl]imidazo[1,2-a]pyrazin-8-yl]amino]-2-methyl-benzoyl]piperazine-1-carboxamide formate], for which the IC90 under setting [1] is 130 nM.
Consider `COc1ccc(-c2cnc3c(Nc4ccc(C(=O)N5CCN(C(=O)N6CCO[C@@H](CN)C6)CC5)c(C)c4)nccn23)c(F)c1F` [Example 145, [4-[(2S)-2-(aminomethyl)morpholine-4-carbonyl]piperazin-1-yl]-[4-[[3-(2,3-difluoro-4-methoxy-phenyl)imidazo[1,2-a]pyrazin-8-yl]amino]-2-methyl-phenyl]methanone formate], for which, under setting [1], the IC90 came to 170 nM.
As to `Cc1cc(Nc2nccn3c(-c4ccc(OC(F)F)cc4)cnc23)ccc1C(=O)N1CCN(C(=O)N2CCO[C@@H](CN)C2)CC1` [Example 146, [4-[(2S)-2-(aminomethyl)morpholine-4-carbonyl]piperazin-1-yl]-[4-[[3-[4-(difluoromethoxy)phenyl]imidazo[1,2-a]pyrazin-8-yl]amino]-2-methyl-phenyl]methanone formate], under setting [1], the IC90 worked out at 300 nM.
Same read-out and setting: to `COc1ccc(-c2cnc3c(Nc4ccc(C(=O)N5CCN(C(=O)N[C@@H](C)CN)CC5)c(C)c4)nccn23)c(F)c1F` [Example 147, N-[(1S)-2-amino-1-methyl-ethyl]-4-[4-[[3-(2,3-difluoro-4-methoxy-phenyl)imidazo[1,2-a]pyrazin-8-yl]amino]-2-methyl-benzoyl]piperazine-1-carboxamide hydrochloride] belongs 210 nM.
Regarding `COc1ccc(-c2cnc3c(Nc4ccc(C(=O)N5CCN(C(=O)N[C@H](C)CN)CC5)c(C)c4)nccn23)c(F)c1F` [Example 148, N-[(1R)-2-amino-1-methyl-ethyl]-4-[4-[[3-(2,3-difluoro-4-methoxy-phenyl)imidazo[1,2-a]pyrazin-8-yl]amino]-2-methyl-benzoyl]piperazine-1-carboxamide hydrochloride], the IC90 under setting [1] came to 210 nM.
Turning to `COc1ccc(-c2cnc3c(Nc4ccc(C(=O)N5CCN(C(=O)NC[C@H](C)N)CC5)c(C)c4)nccn23)c(F)c1F` [Example 149, N-[(2S)-2-aminopropyl]-4-[4-[[3-(2,3-difluoro-4-methoxy-phenyl)imidazo[1,2-a]pyrazin-8-yl]amino]-2-methyl-benzoyl]piperazine-1-carboxamide], the IC90 under setting [1] was found to be 180 nM.
Still for that read-out and setting: to `Cc1cc(Nc2nccn3c(-c4ccc(OC(F)F)cc4)cnc23)ccc1C(=O)N1CCN(C(=O)NC[C@@H](C)N)CC1` [Example 150, N-[(2R)-2-aminopropyl]-4-[4-[[3-[4-(difluoromethoxy)phenyl]imidazo[1,2-a]pyrazin-8-yl]amino]-2-methyl-benzoyl]piperazine-1-carboxamide hydrochloride] belongs 140 nM; to `Cc1cc(Nc2nccn3c(-c4ccc(OC(F)F)cc4)cnc23)ccc1C(=O)N1CCN(C(=O)NC[C@H](C)N)CC1` [Example 151, N-[(2S)-2-aminopropyl]-4-[4-[[3-[4-(difluoromethoxy)phenyl]imidazo[1,2-a]pyrazin-8-yl]amino]-2-methyl-benzoyl]piperazine-1-carboxamide hydrochloride], 140 nM.
Take `COc1ccc(-c2cnc3c(Nc4ccc(C(=O)N5CCN(C(=O)NC[C@@H](C)N)CC5)c(C)c4)nccn23)c(F)c1F` [Example 152, N-[(2R)-2-aminopropyl]-4-[4-[[3-(2,3-difluoro-4-methoxy-phenyl)imidazo[1,2-a]pyrazin-8-yl]amino]-2-methyl-benzoyl]piperazine-1-carboxamide hydrochloride]: under setting [1], the IC90 stood at 110 nM.
